Laboratory results as given in article PMC7002685, “Inhibition of vascular calcification by inositol phosphates derivatized with ethylene glycol oligomers” (Nature Communications, 2020).
Values joined by “and” are separate entries in the source; they are usually repeats but may differ in a detail not shown here. Equal entries are not always repeated. Where two headings read alike, the source gives them in different places.

What was measured:
[1] = system: Glutamate, Kainate; experiment: Off-target 232710; assay type: binding, Rat; settings: 10 µM
Method: (§1) The potential off-target activity of 10 µM (OEG2)2-IP4 was assessed against a panel of 87 enzymes, receptors, or ion channels that are used in standard safety pharmacology screens.
(§2) 3.2. Off-target screening assay
(§3) The experiments were conducted by a contract research organization (Eurofins Panlabs Discovery
(§4) Services Taiwan, Ltd.) and details on the respective assays can be retrieved via the catalog number
(§5) provided in Supplementary Table 11 from the company’s webpage
(§6) (https://www.eurofinsdiscoveryservices.com/). […]

[2] = target: T1, Protein Tyrosine Kinase, LCK (Homo sapiens, UniProt P06239); experiment: Off-target 176020; assay type: biochemical
T1 construct: purchased Eurofins Panlabs Discovery Services Taiwan, Ltd
T1 sequence (P06239 whole entry): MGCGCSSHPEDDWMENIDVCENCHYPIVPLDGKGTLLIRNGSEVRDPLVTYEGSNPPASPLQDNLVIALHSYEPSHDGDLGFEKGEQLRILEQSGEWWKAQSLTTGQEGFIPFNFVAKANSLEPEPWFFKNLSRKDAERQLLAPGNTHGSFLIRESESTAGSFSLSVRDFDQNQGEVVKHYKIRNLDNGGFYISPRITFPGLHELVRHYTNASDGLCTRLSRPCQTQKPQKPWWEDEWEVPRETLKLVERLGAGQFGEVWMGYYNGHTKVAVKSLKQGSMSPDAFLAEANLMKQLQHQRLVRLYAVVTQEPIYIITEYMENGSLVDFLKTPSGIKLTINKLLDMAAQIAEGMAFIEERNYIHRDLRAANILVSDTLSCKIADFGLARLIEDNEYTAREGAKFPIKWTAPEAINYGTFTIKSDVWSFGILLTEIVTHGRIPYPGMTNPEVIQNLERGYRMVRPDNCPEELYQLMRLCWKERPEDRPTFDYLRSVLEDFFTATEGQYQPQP
Method: as §1, §2, §3, §4, §5, §6

[3] = 18F-NaF micro-PET/CT uptake on calcified human femoral arteries ex vivo; assay type: binding
Method: To investigate (OEG2)2-IP4 interaction with calcified tissues in a clinically relevant context, a competitive binding assay using ^18F-NaF was applied on severely calcified human femoral arteries and native aortic valves ex vivo. […] First, ^18F-NaF uptake was measured on tissue samples treated with vehicle (human serum) and thereafter, using the same tissue samples, treated with (OEG2)2-IP4 in serum.
Triplicate aliquots of CPP2s (20 µg Ca/mL) in 100 μL assay buffer (100 mM HBS, pH 7.4 (RT)) were incubated for 1 h at RT in the presence of increasing concentrations of compounds in 50 μL Milli-Q water and ^18F-NaF (1 nM) in 50 μL assay buffer, resulting in a total incubation volume of 200 μL (^18F-NaF was prepared using a FASTlab synthesizer (GE Healthcare, Little Chalfont, UK) and commercially available ^18F-NaF cassettes (GE Healthcare)). Maximum radiotracer binding was determined by incubating CPP2s with ^18F-NaF (1 nM) only. The reaction was terminated by rapid filtration through a SOLAμ™ SPE plate (HRP 2 mg/mL 96-well plate, 22 μm; Thermo Fisher Scientific). SPE individual column matrices were washed twice rapidly in assay buffer and radioactivity on the filters determined by an automatic gamma counter (Wizard2 Gamma Counter, Perkin Elmer, Waltham, MA, USA). […]

[4] = target: T2, Histamine H1 (Homo sapiens, UniProt P35367); experiment: Off-target 239610; assay type: binding
T2 construct: purchased Eurofins Panlabs Discovery Services Taiwan, Ltd
T2 sequence (P35367 whole entry): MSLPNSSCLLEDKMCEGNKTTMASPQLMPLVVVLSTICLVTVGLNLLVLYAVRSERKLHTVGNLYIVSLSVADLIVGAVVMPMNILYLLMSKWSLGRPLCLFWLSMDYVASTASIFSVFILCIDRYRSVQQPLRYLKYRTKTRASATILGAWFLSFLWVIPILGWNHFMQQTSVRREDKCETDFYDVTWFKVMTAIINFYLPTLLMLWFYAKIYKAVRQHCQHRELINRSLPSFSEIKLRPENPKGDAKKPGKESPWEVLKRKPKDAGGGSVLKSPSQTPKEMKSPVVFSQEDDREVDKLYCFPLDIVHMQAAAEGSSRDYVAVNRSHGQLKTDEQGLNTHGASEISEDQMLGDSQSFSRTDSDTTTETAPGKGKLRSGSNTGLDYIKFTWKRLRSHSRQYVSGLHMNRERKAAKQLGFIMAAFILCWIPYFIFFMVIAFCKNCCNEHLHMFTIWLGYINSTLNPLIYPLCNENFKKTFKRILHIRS
Method: as §1, §2
(§7) The experiments were conducted by a contract research organization (Eurofins Panlabs Discovery Services Taiwan, Ltd.) and details on the respective assays can be retrieved via the catalog number provided in Supplementary Table 11 from the company’s webpage
as §6
(§8) At sacrifice the left tibia of animals of the rat model with dietary adenine/high-phosphate-induced uremia and VC was collected, fixed with 70% v/v EtOH and embedded in methyl methacrylate. The trabecular bone compartment is known to be the most metabolic active i.e. actively re-structured bone compartment in CKD. Therefore, histomorphometric and micro-computed tomography (µCT) analysis of bone was performed on the trabecular compartment. Tibial sections were Goldner-stained for histomorphometric analysis of the proximal metaphysis using the AxioVision Release 4.5 software, as […]
(§9) described previously5. […]

[5] = target: T3, Platelet Activating Factor (PAF) (Homo sapiens, UniProt P25105); experiment: Off-target 265010; assay type: binding
T3 construct: purchased Eurofins Panlabs Discovery Services Taiwan, Ltd
T3 sequence (P25105 whole entry): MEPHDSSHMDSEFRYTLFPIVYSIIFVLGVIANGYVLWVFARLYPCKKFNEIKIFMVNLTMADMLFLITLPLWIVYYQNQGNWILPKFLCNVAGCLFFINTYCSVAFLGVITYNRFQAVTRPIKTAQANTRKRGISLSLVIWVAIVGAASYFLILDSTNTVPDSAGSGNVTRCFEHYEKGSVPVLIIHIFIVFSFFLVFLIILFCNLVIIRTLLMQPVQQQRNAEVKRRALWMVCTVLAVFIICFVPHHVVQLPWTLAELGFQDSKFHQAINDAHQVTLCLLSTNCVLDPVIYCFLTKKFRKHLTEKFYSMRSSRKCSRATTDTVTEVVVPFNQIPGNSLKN
Method: as §1, §2, §3, §4, §5, §6

[6] = target: T4, Transporter, Serotonin (5-Hydroxytryptamine) (SERT) (Homo sapiens, UniProt P31645); experiment: Off-target 274030; assay type: binding
T4 construct: purchased Eurofins Panlabs Discovery Services Taiwan, Ltd
T4 sequence (P31645 whole entry): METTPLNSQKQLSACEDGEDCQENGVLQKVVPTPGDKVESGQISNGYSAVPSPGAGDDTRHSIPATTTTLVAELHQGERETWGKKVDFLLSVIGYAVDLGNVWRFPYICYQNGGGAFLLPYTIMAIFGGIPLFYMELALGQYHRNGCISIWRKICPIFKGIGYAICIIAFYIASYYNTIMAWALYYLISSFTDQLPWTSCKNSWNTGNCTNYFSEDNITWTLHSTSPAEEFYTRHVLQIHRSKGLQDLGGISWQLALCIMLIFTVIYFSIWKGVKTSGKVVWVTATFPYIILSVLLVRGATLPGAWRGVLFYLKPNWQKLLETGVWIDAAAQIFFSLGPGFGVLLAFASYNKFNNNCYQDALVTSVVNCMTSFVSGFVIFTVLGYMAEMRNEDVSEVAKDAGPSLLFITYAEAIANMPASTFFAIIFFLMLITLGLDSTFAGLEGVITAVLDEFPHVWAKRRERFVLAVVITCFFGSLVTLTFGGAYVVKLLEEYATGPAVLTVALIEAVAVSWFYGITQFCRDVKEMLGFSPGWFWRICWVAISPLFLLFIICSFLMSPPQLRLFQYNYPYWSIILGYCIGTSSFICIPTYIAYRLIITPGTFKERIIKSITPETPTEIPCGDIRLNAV
Method: as §1, §2, §3, §4, §5, §6

[7] = target: T5, Glutamate, Metabotropic, mGlu5 (Homo sapiens, UniProt P41594); experiment: Off-target 237000; assay type: binding
T5 construct: purchased Eurofins Panlabs Discovery Services Taiwan, Ltd
T5 sequence (P41594 21-1212): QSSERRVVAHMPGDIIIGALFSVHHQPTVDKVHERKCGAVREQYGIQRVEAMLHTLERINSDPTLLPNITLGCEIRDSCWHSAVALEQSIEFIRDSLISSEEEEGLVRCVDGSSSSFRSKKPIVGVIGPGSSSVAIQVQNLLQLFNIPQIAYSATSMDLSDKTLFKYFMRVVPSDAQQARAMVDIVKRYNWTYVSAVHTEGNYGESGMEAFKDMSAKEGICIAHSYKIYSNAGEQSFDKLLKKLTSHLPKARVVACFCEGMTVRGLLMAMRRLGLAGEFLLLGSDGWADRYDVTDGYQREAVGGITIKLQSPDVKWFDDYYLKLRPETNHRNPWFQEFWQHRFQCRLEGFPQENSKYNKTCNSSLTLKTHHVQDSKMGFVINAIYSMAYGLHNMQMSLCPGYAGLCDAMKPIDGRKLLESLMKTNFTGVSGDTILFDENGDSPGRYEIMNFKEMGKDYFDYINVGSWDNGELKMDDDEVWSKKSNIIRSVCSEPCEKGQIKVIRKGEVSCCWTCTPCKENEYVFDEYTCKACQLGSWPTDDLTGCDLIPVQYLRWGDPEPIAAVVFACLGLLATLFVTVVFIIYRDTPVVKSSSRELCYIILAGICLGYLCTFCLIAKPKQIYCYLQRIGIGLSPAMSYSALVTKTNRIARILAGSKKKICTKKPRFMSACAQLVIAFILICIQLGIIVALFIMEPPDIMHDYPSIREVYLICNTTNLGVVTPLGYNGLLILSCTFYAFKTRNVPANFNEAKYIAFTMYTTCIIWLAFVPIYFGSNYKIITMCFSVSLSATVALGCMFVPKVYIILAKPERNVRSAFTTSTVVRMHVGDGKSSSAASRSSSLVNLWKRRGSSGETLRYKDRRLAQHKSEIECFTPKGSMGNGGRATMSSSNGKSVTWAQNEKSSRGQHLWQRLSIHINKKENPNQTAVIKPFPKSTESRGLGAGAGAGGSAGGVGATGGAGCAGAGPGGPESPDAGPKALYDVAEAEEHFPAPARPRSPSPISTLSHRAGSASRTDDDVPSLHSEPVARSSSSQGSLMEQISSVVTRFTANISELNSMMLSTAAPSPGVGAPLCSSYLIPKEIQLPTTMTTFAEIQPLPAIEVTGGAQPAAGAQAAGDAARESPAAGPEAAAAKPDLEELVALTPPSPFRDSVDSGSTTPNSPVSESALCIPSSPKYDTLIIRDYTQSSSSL
Method: as §1, §2, §7, §6, §8, §9

[8] = target: T6, Dopamine D2S (Homo sapiens, UniProt P14416); experiment: Off-target 219700; assay type: binding
T6 construct: purchased Eurofins Panlabs Discovery Services Taiwan, Ltd
T6 sequence (P14416 1-414 isoform P14416-2): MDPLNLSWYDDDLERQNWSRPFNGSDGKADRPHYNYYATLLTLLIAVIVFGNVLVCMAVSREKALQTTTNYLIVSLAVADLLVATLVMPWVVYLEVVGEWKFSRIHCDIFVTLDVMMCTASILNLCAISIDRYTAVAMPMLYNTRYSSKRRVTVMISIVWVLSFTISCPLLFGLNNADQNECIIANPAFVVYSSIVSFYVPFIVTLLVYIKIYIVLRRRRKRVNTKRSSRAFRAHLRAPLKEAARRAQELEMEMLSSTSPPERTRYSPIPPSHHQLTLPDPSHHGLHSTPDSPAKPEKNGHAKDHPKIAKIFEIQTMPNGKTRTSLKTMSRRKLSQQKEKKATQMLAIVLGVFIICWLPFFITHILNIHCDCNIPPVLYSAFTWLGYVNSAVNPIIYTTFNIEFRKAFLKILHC
Method: as §1, §2, §7, §6, §8, §9

[9] = VSMC viability (MTS), compounds only; assay type: cell-based, human; settings: human, compound only, read-out: VSMC viability (MTS), % of medium control
[10] = design: method as in PMID 30280390; settings: after a 4-h i.v. infusion, cited from earlier work

Row | Structure (SMILES) | % Inhibition [1] [%] | inhibition at 10 µM [2] [%] | change of 18F-NaF uptake vs vehicle ([3]; 8.6 μM in human serum) [%] | maximum average 18F binding (18F-NaF-PET) ([3]; IC90 concentration in human serum, individual samples Fig. 3j, unit not given) | inhibition at 10 µM [4] [%] | inhibition at 10 µM [5] [%] | inhibition at 10 µM [6] [%] | inhibition at 10 µM [7] [%] | inhibition at 10 µM [8] [%] | viability at 1 µM ([9]; 1 µM) [%] | viability at 10 µM ([9]; 10 µM) [%] | plasma half-life (t1/2) ([10]; healthy volunteers) [min] | plasma half-life (t1/2) ([10]; hemodialyzed patients) [min]
1 | COCCOCCO[C@@H]1[C@@H](OP(=O)(O)O)[C@H](OCCOCCOC)[C@@H](OP(=O)(O)O)[C@@H](OP(=O)(O)O)[C@H]1OP(=O)(O)O [(OEG2)2-IP4, 4,6-Di-O-(methoxy-diethyleneglycol)-myo-inositol-1,2,3,5-tetrakis(phosphate)] | 17 | 4 | −38 | 319.764 and 464.582 and 653.422 and 447.312 and 563.189 and 486.153 and 450.235 | 4 | -7 | 2 | 24 | 7 | 108 | 106 |  | 
2 | O=P(O)(O)O[C@H]1[C@H](OP(=O)(O)O)[C@@H](OP(=O)(O)O)[C@H](OP(=O)(O)O)[C@@H](OP(=O)(O)O)[C@H]1OP(=O)(O)O [IP6, myo-Inositol hexakisphosphate] |  |  |  |  |  |  |  |  |  |  |  | 54 | 27
